Results from patent US7097825B2, “Methods and reagents to acquire MRI signals and images” (Allos Therapeutics, Inc., priority 2001, dated 2006).

How the values were obtained:
[1] = tested on: tumors; conditions: previous studies, fractionated radiotherapy; cited from earlier work
[2] = tested on: NCI-H460 human large cell lung carcinoma xenografts; test: Tumor growth delay, RSR13 and/or radiation; assay type: in vivo, athymic nude mice; conditions: for Tumor growth delay: n=4
Description: (§1) NCI-H460 human large cell lung carcinoma cells were obtained from the American Type Culture Collection (ATCC). H460 cells were cultured at 37° C., 5% CO2 in RPMI 1640 medium (Gibco BRL, Gaithersburg, Md.)+10% fetal bovine serum (Gibco)+50 U/ml penicillin (Gibco)+50 μg/ml streptomycin (Gibco). Cells were routinely passaged using 0.05% trypsin-EDTA. Human NIH-H460 cells were used as a xenograft model in female athymic nude mice (nu/nu, 5–6 weeks old). Cells at 80% confluence were trypsinized, resuspended in growth medium, and counted. Cells were then centrifuged and resuspended in 37° C. PBS at 2×10^7 cells/ml. A suspension of 2×10^6 cells in a 0.1 ml volume was injected subcutaneously (s.c.) into the left posterior flank. Tumors were allowed to grow for 2 weeks (about 1 cm^3) before imaging, or for 7 days prior to treatment with RSR13 and radiation.
Tumors on the flanks of mice were irradiated using an Eldorado-8 ^60Co γ irradiator (Neutron Products, Inc., Dickerson, Md.). The dose rate was 1.18 Gy/min, at an SSD of 56.5 cm. The non-tumor parts of mice were shielded using lead blocks. Mice were irradiated using restraining devices constructed from 50 ml conical polyethylene tubes taped to a Styrofoam pad. Mice were irradiated 30 min after administration of RSR13 (given by intraperitoneal injection).
Tumors were measured three times weekly in two perpendicular dimensions using Vernier calipers. Volumes were calculated using the formula: volume=0.4* ab^2 (a=long dimension, b=short dimension). Treatment began when tumors reached an average volume of about 0.3 cm^3. Growth delay time (GD) was calculated as the time for treated tumors to double in volume minus the time for control tumors to double in volume, with t=0 defined as the first day of treatment. Treatment groups consisted of either untreated control, radiation alone, RSR13 alone, or RSR13 plus radiation. Each treatment group contained four mice.
A paired t-test was applied to test the differences between baseline and follow-up time points. […]

[3] = molecular target: T1, hemoglobin (Mus musculus, UniProt P01942+P02088); conditions: 20–40 min after 300 mg/kg RSR13 injection into mice; cited from earlier work
T1 construct: after a 300 mg/kg RSR13 injection into mice; host or cells: blood (erythrocytes) of mice injected with RSR13; endogenous hemoglobin

[4] = tested on: NCI-H460 human large cell lung carcinoma xenografts; test: BOLD MRI signal ratio in tumors after RSR13 injection; assay type: in vivo, athymic nude mice; conditions: for Change in BOLD MRI signal: (Intensity (t = 30 min)/Intensity (t = 0)): 30 min after injection, preliminary
Description: as §1
Mice with tumors were anesthetized with 0.05 cc of a ketamine (100 mg/ml) and acepromezine (2.5 mg/0.25 ml) cocktail (induction anesthesia). A 24G angiocath, attached to a syringe with the appropriate amount of RSR13, was then placed and secured intraperitoneally (i.p.). Mice were placed in a pre-warmed anesthesia chamber and the surface coil was positioned over the tumor. The entire assembly was then placed into a Varian 4.7T small bore MR scanner. The anesthesia chamber was then infused with a mixture of 98.5% room air and 1.5% isoflurane (maintenance anesthesia) at a rate of 1.5 L/min throughout the experiment. After scout images were obtained to localize the tumor, serial gradient echo images were obtained at ten-minute intervals over a total of 60 minutes. RSR13 was supplied as a 20-mg/ml stock solution, which was diluted with sterile phosphate-buffered saline (PBS) prior to experiments to achieve the desired dose (mg/kg) per […]. At the start of acquisition of the second image (“time 0”), a dose of RSR13 was injected i.p. RSR13 doses were administered in 0.3 ml volumes; control mice were given injections of saline. Preliminary experiments were performed to optimize the BOLD contrast, first by imaging mouse tumors without any drug, and then by administering different doses of RSR13. A dose of 200 mg/kg was then chosen for further studies. Parameters for BOLD-MRI scans were chosen to maximize sensitivity to oxygen dependent changes in the relaxation parameter T2*. The following MRI parameters were used: TR=520 ms, TE=27 ms, flip angle=45°, 18 signal averages, 230 μm spatial resolution, matrix=128×128, bandwidth=37.4 kHz, field of view=3×3 cm. Color maps indicating percent increase in signal relative to the baseline gradient echo image were created for each image. Color maps were overlaid on corresponding spin echo images for anatomic reference. After images were acquired, each individual tumor (at t=30 min.) was examined slice by slice, and a single slice which was most representative of the entire tumor was chosen. Within each representative slice, a 15×15-pixel regions of interest (ROI) was drawn around the area of maximum signal intensity (about 25% of the tumor slice area). The voxel size was 0.23 mm×0.23 mm×1 mm; thus the slice thickness was 1 mm. The same slice and ROI were then used to calculate the signal ratio corresponding to the other times for the same tumor. The following signal ratio was calculated: Intensity (t)/Intensity (t=0 min). Based on the signal parameters listed above, the MRI signal intesnsity is proportional to the MR relaxation time, T*2, which is linearly related to the level of oxygen saturation. See, e.g. Ogawa, et al., Magn. Reson. Med. 29:205–10 (1993). Images were analyzed in a blind fashion in the dose dependence studies, without knowledge of the drug doses used, to eliminate observer bias.
A paired t-test was applied to test the differences between baseline and follow-up time points. All tests of significance were two-sided, and differences were considered statistically significant when the P value was≦0.05. […]

T1 sequence (P01942 2-142 limits assumed): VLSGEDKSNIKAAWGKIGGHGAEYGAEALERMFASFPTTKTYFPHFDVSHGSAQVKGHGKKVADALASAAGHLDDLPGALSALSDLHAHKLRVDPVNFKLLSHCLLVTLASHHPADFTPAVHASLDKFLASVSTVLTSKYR
T1 sequence (P02088 2-147 limits assumed): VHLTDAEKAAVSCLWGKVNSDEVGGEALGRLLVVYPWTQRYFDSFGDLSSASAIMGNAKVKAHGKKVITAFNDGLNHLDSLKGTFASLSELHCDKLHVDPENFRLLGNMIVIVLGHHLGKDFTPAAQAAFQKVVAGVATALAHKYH

## Cc1cc(C)cc(NC(=O)Cc2ccc(OC(C)(C)C(=O)O)cc2)c1 [RSR13, 2-[4-(((3,5-dimethylanilino)carbonyl)methyl)phenoxy]-2-methylpropionic acid]
[1]
  Enhancement ratios (dose modifying factors): 1.3–1.8
[2]; 6.6/2.4, 200 mg/kg, 10 Gy 30 min later
  Enhancement factor (growth delay RSR13 plus radiation / radiation alone): 2.8
[2]; RSR13 200 mg/kg i.p. plus radiation 10 Gy given 30 min later, radiation alone 2.4 days
  Tumor growth delay: 6.6 days
[2]; RSR13 alone, 200 mg/kg i.p.
  Tumor growth delay: did not affect tumor growth delay
[3]
  Mean increase of pO2 at 50% hemoglobin saturation: 53%
[4]; 200 mg/kg i.p., n=8, P=0.04
  Increase of MRI signal ratio between t=10 and 30 min: 14%
[4]; 200 mg/kg i.p., n=8, P=0.05
  Increase of MRI signal ratio between t=10 and 20 min: 9%
[4]; 200 mg/kg i.p., n=8, P≧0.05
  Changes of MRI signal ratio between t=10 and 40, 50, or 60 min: not statistically significant
[4]; 200 mg/kg i.p., n=8 mice
  Time of maximum MRI signal ratio after RSR13 injection: 30 min
[4]; FIG. 9, H460 tumor ROI 1, about two hours after time zero injection
  Increase in signal in tumor tissue ROI, normalized to signal at time zero: ~20%
[4]; RSR13 100 mg/kg i.p., 1 mouse (Mouse B)
  Change in BOLD MRI signal: (Intensity (t = 30 min)/Intensity (t = 0)): 1.13
[4]; RSR13 200 mg/kg i.p., 1 mouse (Mouse C)
  Change in BOLD MRI signal: (Intensity (t = 30 min)/Intensity (t = 0)): 1.20
[4]; RSR13 300 mg/kg i.p., 1 mouse (Mouse D)
  Change in BOLD MRI signal: (Intensity (t = 30 min)/Intensity (t = 0)): 1.19
[4]; doses 0, 100, 200, 300 mg/kg, t=30 min
  Dose at which the signal ratio reached a plateau: 200 mg/kg
